Drawing on patent US6528655B1, “Aromatic derivatives with HIV integrase inhibitory properties” (Pharmacor, Inc., priority 2000, dated 2003), this text covers IC50 for six compounds.

A word on the IC50: it is the concentration that gives 50% inhibition. Higher therefore signals a need for much substance.

SMILES strings stand for the structures.

The target in this test is HIV-1 integrase (Human immunodeficiency virus type 1 group M subtype B, UniProt P04585). The test is described as follows: HIV-1 integrase inhibition assay (radiolabeled duplex substrate corresponding to the U5 end of the HIV LTR). The class given is biochemical. The protocol: For the purpose of Table 1 to 4, the HIV-1 integrase inhibition assay was carried out following a known procedure (Burke, Jr. T. R. et al., J. Med. Chem. 38, 4171-4178 (1995)). A suitable radiolabeled duplex substrate corresponding to the U5 end of the HIV LTR was used.
For the purposes of Table 1 to 4 the HIV-1 integrase inhibition assay was based on a known procedure (Hazuda, D. J. et al., Nucleic Acids Res. 22 1121-1122 (1994)).
For the compound `O=C(N[C@@H](CSC(c1ccccc1)(c1ccccc1)c1ccccc1)C(=O)NCCc1ccc(O)c(O)c1)c1c(O)cccc1F` [Example 38, N-[Nα-(2-Fluoro-6-Hydroxybenzoyl)-S-trityl-L-cysteinyl]dopamine], the IC50 was found to be 1400 nM.
`CC(C)(C)OC(=O)CC[C@H](NC(=O)c1ccc(OCc2ccc(F)cc2)c(OCc2ccc(F)cc2)c1)C(=O)NCc1ccccc1` [Example 99, N-[Nα-(3,4-di-(4-Fluorobenzyloxy)benzoyl)-Oδ-tert-butyl-L-glutamyl]benzylamine] gave an IC50 above 10000 nM.
Regarding `CC(C)(C)OC(=O)CC[C@H](NC(=O)c1cc(O)c2cccc(O)c2n1)C(=O)NCCc1cccs1` [Example 105, N-[Nα-(4,8-Dihydroxyquinoline-2-carbonyl)-Oδ-tert-butyl-L-glutamyl]-2-(2′-thiophenyl)ethylamine], the IC50 is above 10000 nM.
Next, `O=C(C=Cc1ccc(O)c(O)c1)NC(Cc1cn(Cc2ccccc2)cn1)C(=O)NCCc1ccc(O)c(O)c1` [Example 40, N-(Nα-Caffeoyl-Nτ-benzyl-L-histidinyl)dopamine]: 836 nM; `O=C(C=Cc1ccc(O)c(O)c1)NC(Cc1cn(-c2ccc([N+](=O)[O-])cc2[N+](=O)[O-])cn1)C(=O)NNC(=O)c1ccccc1O` [Example 80, N1-[Nα-Caffeoyl-Nτ-(2,4-dinitrophenyl)-L-histidinyl]-N2-(2-hydroxybenzoyl)-hydrazine]: 251 nM.
The compound `O=C(N[C@@H](Cc1ccc(O)cc1)C(=O)NCCc1ccc(O)c(O)c1)c1cc2cccc(O)c2cc1O` [Example 57, N-[Nα-(3,5-Dihydroxynaphthyl-2-carbonyl)-L-tyrosyl]dopamine] had an IC50 of 1100 nM.
